Results: ChEMBL document CHEMBL5303304, “EUbOPEN Chemogenomics Library - IncuCyte” (2023)

How the values were obtained:
Format in all cases: toxicity, cell-based
U2OS = test: Incucyte cell viability with U2OS; conditions: human, 10 µM, compound concentration 10 uM
HEK-293T = test: Incucyte cell viability with HEK293T; conditions: human, 10 µM, compound concentration 10 uM
Fibroblast = test: Incucyte cell viability with human fibroblast; conditions: 10 µM, compound concentration 10 uM
Further: unitless GR value; below 1 slowed growth and below 0 cell loss.

| SMILES | Growth Rate (U2OS; 6 h, replicate number 2) | Growth Rate (U2OS; 12 h, replicate number 1) | Growth Rate (U2OS; 18 h, replicate number 1) | Growth Rate (U2OS; 18 h, replicate number 2) | Growth Rate (U2OS; 24 h, replicate number 2) | Growth Rate (HEK-293T; 6 h, replicate number 1) | Growth Rate (HEK-293T; 6 h, replicate number 2) | Growth Rate (HEK-293T; 12 h, replicate number 1) | Growth Rate (HEK-293T; 12 h, replicate number 2) | Growth Rate (HEK-293T; 18 h, replicate number 1) | Growth Rate (HEK-293T; 18 h, replicate number 2) | Growth Rate (HEK-293T; 24 h, replicate number 1) | Growth Rate (HEK-293T; 24 h, replicate number 2) | Growth Rate (Fibroblast; 0 h, replicate number 1) | Growth Rate (Fibroblast; 12 h, replicate number 1) | Growth Rate (Fibroblast; 18 h, replicate number 1) | Growth Rate (U2OS; 0 h, replicate number 1) | Growth Rate (U2OS; 6 h, replicate number 1) | Growth Rate (U2OS; 24 h, replicate number 1) | Growth Rate (HEK-293T; 0 h, replicate number 2) | also measured |
| --- | --- | --- | --- | --- | --- | --- | --- | --- | --- | --- | --- | --- | --- | --- | --- | --- | --- | --- | --- | --- | --- |
| CN1CCN(c2ccnc(NCCc3ccccc3)n2)CC1 [TP-040n] | -0.72 | 1 | 0.94 | 0.96 | 0.87 | 0.2 | 0.09 | 0.39 | 0.3 | 0.42 | 0.35 | 0.41 | 0.4 | -1 | 0.8 | 0.74 | – | – | – | – | Growth Rate (Fibroblast; 12 h, replicate number 2): 0.9; Growth Rate (Fibroblast; 18 h, replicate number 2): 0.63; Growth Rate (Fibroblast; 24 h, replicate number 1): 0.58; Growth Rate (Fibroblast; 24 h, replicate number 2): 0.53 |
| CC(=O)Nc1cccc(-n2c(=O)n(C3CC3)c(=O)c3c(Nc4ccc(I)cc4F)n(C)c(=O)c(C)c32)c1 [TRAMETINIB] | 0.66 | 0.58 | 0.53 | 0.85 | 0.74 | – | 0.92 | – | 0.78 | – | – | – | – | – | – | – | 0.34 | 0.99 | 0.9 | -0.7 | Growth Rate (U2OS; 0 h, replicate number 2): 0.61; Growth Rate (U2OS; 12 h, replicate number 2): 0.91; Growth Rate (HEK-293T; 0 h, replicate number 1): 0.04; Growth Rate (Fibroblast; 6 h, replicate number 1): 0.65 |
| CN1CCN(c2ccc(Nc3ncc4cc5n(c4n3)C3(CCCCC3)CNC5=O)nc2)CC1 [TRILACICLIB] | – | – | 0.92 | – | 0.98 | – | – | – | – | – | – | – | 0.99 | -1 | – | – | 0.26 | 0.29 | 0.84 | – | Growth Rate (HEK-293T; 0 h, replicate number 1): -0.98 |
| O=C(O)c1cc(F)c2nc(N3[C@@H]4CC[C@H]3C[C@@H](OCc3c(-c5ccccc5OC(F)(F)F)noc3C3CC3)C4)sc2c1 [TROPIFEXOR] | – | 0.99 | – | – | – | – | – | – | – | – | – | – | – | – | 0.31 | 0.63 | – | 0.63 | – | 0.6 | Growth Rate (Fibroblast; 0 h, replicate number 2): 0.33; Growth Rate (Fibroblast; 6 h, replicate number 2): 0.98; Growth Rate (Fibroblast; 24 h, replicate number 1): 0.97 |
| CC(C)C[C@H](NC(=O)[C@@H](O)[C@H](N)Cc1ccccc1)C(=O)O [UBENIMEX] | – | 0.82 | 0.94 | – | – | 0.49 | – | 0.55 | – | 0.49 | 0.98 | 0.59 | 0.92 | – | – | – | 0.42 | 0.42 | 0.89 | – | Growth Rate (HEK-293T; 0 h, replicate number 1): 0.14; Growth Rate (Fibroblast; 0 h, replicate number 2): -0.85; Growth Rate (Fibroblast; 12 h, replicate number 2): 0.72; Growth Rate (Fibroblast; 18 h, replicate number 2): 0.83; Growth Rate (Fibroblast; 24 h, replicate number 2): 0.91 |
| c1cnc2cc3c(cc2n1)[C@@H]1CNC[C@H]3C1 [VARENICLINE] | 0.65 | 0.98 | 0.91 | 1 | 0.9 | 0.65 | 0.78 | – | 0.87 | – | 0.95 | 0.99 | – | 0.28 | – | -0.31 | 0.97 | – | 0.92 | 0.72 | Growth Rate (U2OS; 12 h, replicate number 2): 0.82 |
| CC1(C)CCC(CN2CCN(c3ccc(C(=O)NS(=O)(=O)c4ccc(NCC5CCOCC5)c([N+](=O)[O-])c4)c(Oc4cnc5[nH]ccc5c4)c3)CC2)=C(c2ccc(Cl)cc2)C1 [VENETOCLAX] | 0.98 | 0.81 | 0.78 | 0.89 | 0.93 | 0.01 | – | 0.58 | – | 0.66 | – | 0.87 | – | – | 0.87 | – | 0.58 | 0.5 | 0.81 | 0.6 | Growth Rate (U2OS; 0 h, replicate number 2): -0.65; Growth Rate (U2OS; 12 h, replicate number 2): 0.51; Growth Rate (Fibroblast; 0 h, replicate number 2): -0.85; Growth Rate (Fibroblast; 6 h, replicate number 1): 0.5 |
